The values that follow come from patent US9957273B2, “5-substituted 7- [4-(2-pyridyl)phenylmethylamino] -3-isopropylpyrazolo4,3-D]pyrimidine derivatives, use thereof as medicaments, and pharmaceutical compositions” (USTAV EXPERIMENTALNI BOTANIKY AV CR, V.V.I., priority 2015, dated 2018).

Usually IC50 stands for the concentration needed to halve the response being measured.

The subject of test [1] is K562 (human chronic myelogenous leukaemia). The test can be described thus: MTT cytotoxicity assay, leukemic cell line K562. The format is cell-based. The conditions noted are these: Homo sapiens, K562, 72 h, three days. Put shortly: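 Cells grown in RPMI with FBS and L-glutamine at 37 °C, 5% CO2; 2000-5000 cells per well stabilized ≥8 h, then treated in triplicate with compound from 100 to 0.01 μM for three days. MTT added for five hours, formazan dissolved in DMSO, absorbance read at 620 nm versus untreated cells.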

The test system of test [2] is G361 (malignant melanoma). The test can be described thus: MTT cytotoxicity assay, solid cancer cell line G361. The class given is cell-based. The conditions noted are these: Homo sapiens, G-361, 72 h, three days. The method, boiled down:
(§1)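 Viability is scored by MTT reduction after a three-day incubation with compound (100 to 0.01 μM, triplicates) in DMEM with serum and L-glutamine. Medium is swapped for DMSO after five hours with MTT and plates are read at 620 nm, untreated wells serving as reference.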

Test [3] relates to MCF7 (breast adenocarcinoma). Briefly: MTT cytotoxicity assay, solid cancer cell line MCF7. The format is cell-based. Particulars: Homo sapiens, MCF7, 72 h, three days. Put shortly: as §1
Test [4] has as its system HCT116 (colon carcinoma). Briefly: MTT cytotoxicity assay, solid cancer cell line HCT116. The format is cell-based. The conditions noted are these: Homo sapiens, HCT-116, 72 h, three days. The method, boiled down:
as §1

Test [5] concerns the target T1, CDK2/Cyclin E (Homo sapiens, UniProt P24941).
T1 construct: made in house; host or cells: Sf9 insect cells (baculovirus)
Briefly: CDK2/Cyclin E kinase inhibition (33P-ATP, histone H1). The class given is biochemical. Particulars: 15 μM ATP. The method, boiled down:
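Sf9-expressed, NiNTA-purified CDK2/Cyclin E with 1 mg/mL histone H1, 15 μM ATP plus [γ-33P]ATP in HEPES pH 7.5 buffer with Mg2+/Mn2+. Stopped with H3PO4; phosphorylated substrate captured on P-81 phosphocellulose and washed.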

Test [6] has as its target T2, CDK5/p35 (Homo sapiens, UniProt Q00535).
T2 construct: purchased ProQinase GmbH
Briefly: CDK5/p35 kinase inhibition (33P-ATP, histone H1). The class given is biochemical. The conditions noted are these: 0.15 μM ATP. On the procedure: CDK2/Cyclin E kinase was produced in Sf9 insect cells via baculoviral infection and purified on a NiNTA column (Qiagen). […] CDK5/p35 was purchased from ProQinase GmbH.
The reactions were stopped by adding 5 μL of 3% aq H3PO4. Aliquots were spotted onto P-81 phosphocellulose (Whatman), washed 3× with 0.5% aq H3PO4 and finally air-dried.

The test system of test [7] is p53. Briefly: Immunoblotting of apoptotic markers in HCT116 cells: p53. The conditions noted are these: 24 hours, FIG. 4. The class given is cell-based. On the procedure:
Effect of novel compounds on apoptosis was confirmed by immunoblotting analysis of selected apoptotic proteins. For immunoblotting, cell were harvested, washed three times with ice-cold PBS and lysed in a buffer (50 mM Tris, pH 7.4, 250 mM NaCl, 5 mM EDTA, 50 mM NaF, 1 mM Na3VO4, 1% Nonidet P40) containing mixture of protease and phosphatase inhibitors (Sigma-Aldrich). 20 μg of total proteins were separated by SDS-polyacrylamide gel electrophoresis (SDS-PAGE) and transferred onto nitrocellulose membranes. Membranes were blocked in 5% milk and 0.1% Tween 20 in PBS and probed overnight with specific antibodies. Specific antibodies were purchased from SigmaAldrich (anti a-tubulin, clone DM1A), Santa Cruz Biotechnology (anti-Mcl-1, clone S-19; anti-PARP, clone F-2; anti-Mdm-2, clone SMP14; anti-Bcl-2), DAKO Cytomation Cell Signaling (anti-PUMA) or were a generous gift from Dr. B. Vojtesek (anti-p53, clone DO-1). All primary antibodies were diluted in PBS containing 5% powdered milk; 0.1% Tween 20. Peroxidase conjugated rabbit anti-mouse immunoglobulin or porcine anti-rabbit immunoglobulin antisera (DAKO) were used as the secondary antibodies and visualised with ECL reagents (GE-Healthcare Life Sciences).

The test system of test [8] is HUVECs (human umbilical vein endothelial cells). Briefly: HUVEC migration (scratch) assay. Particulars: 16 h, read-out: Inhibition of migration (EC50). The format is cell-based. On the procedure:
To verify that novel compounds have anti-vascularisation properties, we analyzed their influence on the proliferation and migration of HUVECs. HUVECs (human umbilical vein endothelial cells) were purchased from Promocell (Heidelberg, Germany) and cultured in endothelial cell growth medium (ECGM, Promocell, Heidelberg, Germany) containing 10% FCS (Biochrom, Berlin, Germany). Experiments were performed using cells at passage 3.
For migration assay, confluent HUVECs were scratched with a pipette tip and immediately treated with either starvation medium M199 (serum-free, negative control; PAN Biotech) or full endothelial cell growth medium (positive control). After 16 h, cells were fixed with 3% formaldehyde and images were taken using the TILLvisON system (Lochham, Germany) connected to an Axiovert 200 microscope (Zeiss, Germany). Evaluation of pictures was made by S.CO LifeScience (Garching, Germany). Migration was quantified as the ratio of the area covered with cells and the area of the cell free wound.

T2 sequence (Q00535 whole entry): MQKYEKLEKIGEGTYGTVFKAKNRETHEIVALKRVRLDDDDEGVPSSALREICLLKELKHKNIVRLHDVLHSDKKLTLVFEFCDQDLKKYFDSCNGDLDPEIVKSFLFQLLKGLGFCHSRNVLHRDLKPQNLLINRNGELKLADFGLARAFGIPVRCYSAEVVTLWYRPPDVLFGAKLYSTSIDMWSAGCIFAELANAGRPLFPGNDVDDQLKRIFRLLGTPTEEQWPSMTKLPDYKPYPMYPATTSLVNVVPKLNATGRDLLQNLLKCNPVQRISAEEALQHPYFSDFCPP
T2 sequence (Q15078 whole entry partner): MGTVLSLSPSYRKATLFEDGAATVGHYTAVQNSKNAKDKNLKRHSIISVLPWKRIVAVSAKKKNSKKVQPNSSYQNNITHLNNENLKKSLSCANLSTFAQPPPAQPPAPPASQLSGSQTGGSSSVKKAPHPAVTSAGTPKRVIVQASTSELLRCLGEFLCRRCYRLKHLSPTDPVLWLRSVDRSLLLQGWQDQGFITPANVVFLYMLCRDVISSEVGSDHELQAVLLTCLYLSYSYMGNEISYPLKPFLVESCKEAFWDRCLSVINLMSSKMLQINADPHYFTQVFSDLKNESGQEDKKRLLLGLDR

As for `CC(C)c1[nH]nc2c(NCc3ccc(-c4ccccn4)cc3)nc(NCC(O)CN)nc12` (centres unmarked) [Compound 45], the IC50 in test [1] came to 0.7 µM; in test [2], 0.22 µM; in test [3] it was 0.31 µM; in test [4], 0.37 µM; in test [5] it was 0.051 µM; in test [6], 0.017 µM. The “expression of tumor suppressor protein p53 (immunoblot)” value in test [7] was “rapidly increased the expression”. Also, the EC50 in test [8] worked out at 500 nM.
